US20240299469A1, “PRODUCTION OF INDOLE-DERIVED METABOLITES BY SHELF-STABLE COMMUNITIES OF SAFE BACTERIA” (Imvela Corp., priority 2023, published 2024)

Assay: Storage stability in pet chew matrix
Type: physicochemical
Conditions: water activity (aw) 0.4, 4 weeks of storage
Experimental: Stability of Bacillus Strains 1-3 was measured in a pet chew matrix with water activity (aw) level of 0.4, which is typically growth-prohibitive for other bacteria such as Lactobacillus. While Lactobacillus viability declined over 4 weeks of storage, Bacillus Strains 1-3 remained viable for 4 weeks, with loss of viability being less than <0.5 log 10 (FIGS. 3B and 3D).

With Lactobacillus the viability over storage was “declined”.
